According to patent US20210352950A1 (priority 2019, published 2021):

System: Phosphorylated histone H2AX
Experiment: Histone H2AX phosphorylation (DNA damage, western blot)
Assay type: cell-based, human and murine
Settings: HCT116 and CT26.WT, STS 24 hours + vitamin C 350 μM 3 hours
Procedure: Cells were washed twice in ice-cold PBS and lysates were prepared in RIPA lysis buffer (50 mM Tris HCl pH 7.4, 150 mM NaCl, 1% NP-40, 0.25% deoxycholic acid, 1 mM EDTA) supplemented with protease and phosphatase inhibitors (protease inhibitor cocktail set III EDTA-free, Calbiochem, Cat. #: S39134; PhosStop, Roche), Samples were sonicated (bioruptor plus, diogenode) and centrifuged at 16.1 g for 30 minutes at 4° C. Tumor tissues were collected and snap frozen in liquid nitrogen immediately after mice were sacrificed, and stored in -80° C. until use. […] Protein concentrations were determined by BCA assay (Thermo Fisher Scientific, Cat. #: 23225). Proteins were diluted in 1× Laemmli sample buffer, boiled at 95° C. for 5 minutes and 30 μg of total proteins were separated by using SDS-PAGE and analyzed by western blotting by standard procedures. […] Membranes were incubated overnight at 4° C. with gentle shaking with the following primary antibodies: […] ADI-SPA894), FTH (1:1000, Cell Signaling, Cat. #: 3998), AMPK (1:1000, Cell Signaling, Cat. #: 2532), phospho-[…] AMPK (1:1000, Cell Signaling, Cat. #: 2535), eIF2a (1:1000, Cell signaling, Cat. #: 5324), phospho […] eIF2a (1:1000, Cell signaling, Cat. #: 3597), AKT (1:1000, Cell Signaling, Cat. #: 9272), phospho-[…] […] Bands intensity was quantified with NIH Image J software (version 1.48v).

O=C1O[C@H]([C@@H](O)CO)C(O)=C1O [vitamin C, ascorbic acid]
DNA damage measured by phosphorylation level of histone H2AX: strongly induced DNA damage
